Tests used:
Format in all cases: in vivo
Monochoria vaginalis = assay: Herbicidal efficacy test by pre-emergence treatment under submergence condition; details: 15th day after treatment, ratings of 1 to 5; also: key: 1 shows no influence; 5 shows complete die
Source text: (§3) A 1/10,000-are pot was filled with paddy field soil, and, after plowing, seeds of Echinochloa oryzicola, Cyperus difformis, Monochoria vaginalis, Scirpus juncoides, Eleocharis acicularis and other annual broadleaf weeds such as Lindernia procumbens, Rotala indica and Elatine triandra were sown. Rice (oryza sativa) seedlings (cultiver “Koshihikari”) at a 2.5-leaf stage were transplanted and kept under a submergence condition. After one day, the wettable powder or emulsifiable concentrate of the compound of the present invention, prepared according to Preparation Example, was diluted and dropped on a water surface at a predetermined dose.

Scirpus juncoides = assay: as above; details: 15th day after treatment, ratings of 1 to 5
Source text: as §3

Chenopodium album [1] = assay: Herbicidal efficacy test by soil treatment before germination under upland field condition; details: dose 1 kg/ha; 21st day after treatment; ratings of 1 to 5; also: key: 1 shows no influence; 5 shows complete die
Source text: (§1) A vat having an area of 5×10 cm^2 and a depth of 5 cm was filled with upland field soil, and seeds of Chenopodium album, Echinochloa crus-galli, Amaranthus viridis, Digitaria ciliaris and sweet corn (Zea mays) were sown thereon and covered with soil by a depth of 0.5 cm.

Amaranthus viridis [2] = assay: as above; details: dose 1 kg/ha; 21st day after treatment; ratings of 1 to 5
Source text: as §1

Echinochloa crus-galli [3] = assay: as above; details: dose 1 kg/ha; 21st day after treatment; ratings of 1 to 5
Source text: as §1

Digitaria ciliaris = assay: as above; details: dose 1 kg/ha; 21st day after treatment; ratings of 1 to 5
Source text: as §1

Chenopodium album [4] = assay: Herbicidal efficacy test by foliar treatment after germination under upland field condition; details: dose 1 kg/ha, rated 1 to 5 on the 14th day after treatment; also: key: 1 shows no influence; 5 shows complete die
Source text: (§2) A vat having an area of 5×10 cm^2 and a depth of 5 cm was filled with upland field soil, and seeds of Chenopodium album, Echinochloa crus-galli, Amaranthus viridis and Abutilon theophrasti were sown thereon and covered with soil by a depth of 0.5 cm. Water was sprayed as required to grow them for 14 days.

Amaranthus viridis [5] = assay: as above; details: dose 1 kg/ha, rated 1 to 5 on the 14th day after treatment
Source text: as §2

Echinochloa crus-galli [6] = assay: as above; details: dose 1 kg/ha, rated 1 to 5 on the 14th day after treatment
Source text: as §2

[7] = tested on: annual broadleaf weeds such as Lindernia procumbens, Rotala indica and Elatine triandra; assay: Herbicidal efficacy test by pre-emergence treatment under submergence condition; details: 15th day after treatment, ratings of 1 to 5
Source text: as §3

Cyperus difformis = assay: as above; details: 15th day after treatment, ratings of 1 to 5; also: key: 1 shows no influence; 5 shows complete die
Source text: as §3

Echinochloa oryzicola = assay: as above; details: 15th day after treatment, ratings of 1 to 5
Source text: as §3

Abutilon theophrasti = assay: Herbicidal efficacy test by foliar treatment after germination under upland field condition; details: Dc: Digitaria ciliaris (table footnote; method names Abutilon theophrasti), dose 1 kg/ha, rated 1 to 5 on the 14th day after treatment
Eleocharis acicularis = assay: Herbicidal efficacy test by pre-emergence treatment under submergence condition; details: 15th day after treatment, ratings of 1 to 5; also: key: 1 shows no influence; 5 shows complete die
Source text: as §3

sweet corn (Zea mays) = assay: Injury to corn, soil treatment before germination under upland field condition; details: dose 1 kg/ha; 21st day after treatment; ratings of 1 to 5
Source text: as §1
For Herbicidal activity Av in this document: key: 1 shows no influence; 5 shows complete die.

Compound | Herbicidal efficacy Mv (Monochoria vaginalis; dose 0.5 kg/ha) | Herbicidal efficacy Mv (Monochoria vaginalis; dose 1 kg/ha) | Herbicidal efficacy Sj (Scirpus juncoides; dose 0.5 kg/ha) | Herbicidal efficacy Sj (Scirpus juncoides; dose 1 kg/ha) | Herbicidal activity Ca (Chenopodium album [1]) | Herbicidal activity Av (Amaranthus viridis [2]) | Herbicidal activity Ec (Echinochloa crus-galli [3]) | Herbicidal activity Dc (Digitaria ciliaris) | Herbicidal activity Ca (Chenopodium album [4]) | Herbicidal activity Av (Amaranthus viridis [5]) | Herbicidal activity Ec (Echinochloa crus-galli [6]) | Herbicidal efficacy Blw ([7]; dose 0.5 kg/ha) | Herbicidal efficacy Blw ([7]; dose 1 kg/ha) | Herbicidal efficacy Cd (Cyperus difformis; dose 0.5 kg/ha) | Herbicidal efficacy Cd (Cyperus difformis; dose 1 kg/ha) | Herbicidal efficacy Eo (Echinochloa oryzicola; dose 0.5 kg/ha) | Herbicidal efficacy Eo (Echinochloa oryzicola; dose 1 kg/ha) | Herbicidal activity Dc (Abutilon theophrasti) | Herbicidal efficacy Ea (Eleocharis acicularis; dose 0.5 kg/ha) | Herbicidal efficacy Ea (Eleocharis acicularis; dose 1 kg/ha) | further results
CNC(=O)n1nc(Oc2c(Cl)cc(C(F)(F)F)cc2Cl)cc1C [Compound 3-14] | 5 | 5 | 5 | 5 | 5 | 5 | 4.9 | 5 | 5 | 5 | 5 | 5 | 5 | 5 | 5 | 5 | 5 | 5 | 5 | 5 | –
CNC(=S)n1nc(Oc2c(Cl)cc(C(F)(F)F)cc2Cl)cc1C [Compound 3-15] | 5 | 5 | 5 | 5 | – | – | – | – | 5 | 5 | 5 | 5 | 5 | 5 | 5 | 5 | 5 | 5 | 5 | 5 | –
CCNC(=O)n1nc(Oc2c(Cl)cc(C(F)(F)F)cc2Cl)cc1C [Compound 3-44] | 5 | 5 | 5 | 5 | 5 | 5 | 5 | 5 | 5 | 5 | 5 | 5 | 5 | 5 | 5 | 5 | 5 | 5 | 5 | 5 | Injury Zm (sweet corn (Zea mays)): 3
CCNC(=S)n1nc(Oc2c(Cl)cc(C(F)(F)F)cc2Cl)cc1C [Compound 3-45] | 5 | 5 | 4 | 5 | 5 | 5 | 5 | 5 | 5 | 5 | 5 | 5 | 5 | 5 | 5 | 5 | 5 | 5 | 5 | 5 | Injury Zm (sweet corn (Zea mays)): 2
CCNC(=O)n1nc(Oc2ccc(C(F)(F)F)cc2[N+](=O)[O-])cc1C [Compound 3-67] | – | – | – | – | – | – | – | – | 5 | 5 | 4.9 | – | – | – | – | – | – | 5 | – | – | –
CCCNC(=O)n1nc(Oc2ccc(C(F)(F)F)cc2[N+](=O)[O-])cc1C [Compound 3-82] | – | – | – | – | – | – | – | – | 5 | 5 | 3.8 | – | – | – | – | – | – | 5 | – | – | –
Cc1cc(Oc2c(Cl)cc(C(F)(F)F)cc2Cl)nn1C(=O)NC(C)C [Compound 3-89] | 5 | 5 | 5 | 5 | – | – | – | – | 5 | 5 | 5 | 5 | 5 | 5 | 5 | 5 | 5 | 5 | 5 | 5 | –
C=CCNC(=O)n1nc(Oc2c(Cl)cc(C(F)(F)F)cc2Cl)cc1C [Compound 3-130] | 5 | 5 | 5 | 5 | – | – | – | – | 5 | 5 | 5 | 5 | 5 | 5 | 5 | 5 | 5 | 5 | 5 | 5 | –
CCONC(=O)n1nc(Oc2c(Cl)cc(C(F)(F)F)cc2Cl)cc1C [Compound 3-158] | 5 | 5 | 5 | 5 | – | – | – | – | 5 | 5 | 5 | 5 | 5 | 5 | 5 | 5 | 5 | 5 | 5 | 5 | –
CNC(=O)n1nc(Oc2c(Cl)cc(C(F)(F)F)cc2Cl)c(Cl)c1C [Compound 3-249] | 5 | 5 | 5 | 5 | 5 | 5 | 4.5 | 5 | 5 | 5 | 5 | 5 | 5 | 5 | 5 | 5 | 5 | 5 | 5 | 5 | Injury Zm (sweet corn (Zea mays)): 1.2
CCNC(=O)n1nc(Oc2c(Cl)cc(C(F)(F)F)cc2Cl)c(Cl)c1C [Compound 3-253] | 5 | 5 | 5 | 5 | 5 | 5 | 4 | 5 | 5 | 5 | 5 | 5 | 5 | 5 | 5 | 5 | 5 | 5 | 5 | 5 | Injury Zm (sweet corn (Zea mays)): 1.5
CCNC(=O)n1nc(Oc2c(Cl)cc(C(F)(F)F)cc2Cl)cc1CC [Compound 3-330] | 5 | 5 | 5 | 5 | 5 | 5 | 3.5 | 5 | 5 | 5 | 5 | 5 | 5 | 5 | 5 | 5 | 5 | 5 | 5 | 5 | Injury Zm (sweet corn (Zea mays)): 1.5
CCCNC(=O)n1nc(Oc2ncc(C(F)(F)F)cc2Cl)cc1C [Compound 4-23, N-propyl-3-(3-chloro-5-trifluoromethylpyridin-2-yloxy)-5-methylpyrazole-1-carboxamide] | 5 | 5 | 4.9 | 5 | – | – | – | – | – | – | – | 4.8 | 5 | 5 | 5 | 5 | 5 | – | 5 | 5 | –
CCC(C)NC(=O)n1nc(Oc2ncc(C(F)(F)F)cc2Cl)cc1C (stereo not drawn) [Compound 4-30, N-s-butyl-3-(3-chloro-5-trifluoromethylpyridin-2-yloxy)-5-methylpyrazole-1-carboxamide] | – | – | – | – | – | – | – | – | 5 | 5 | 5 | – | – | – | – | – | – | 5 | – | – | –
